Measured values reported in patent publication US20160229839A1, “Factor XIa Inhibitors” (Merck Sharp & Dohme Corp., priority 2013, published 2016).

Biological target: T1, purified human Factor XIa (Homo sapiens, UniProt P03951)
T1 construct: purified human Factor XIa; purchased Sekisui Diagnostics
Assay: Factor XIa Assay (fluorogenic substrate Z-Gly-Pro-Arg-AFC)
Type: biochemical
Conditions: purified human Factor XIa 40 pM; Z-Gly-Pro-Arg-AFC 100 μM; 50 mM HEPES pH 7.4; read-out: hFXIa Ki (nM), Factor XIa inhibition
Experimental: The effectiveness of compound of the present invention as inhibitors of Coagulation Factor XIa can be determined using a relevant purified serine protease, and an appropriate synthetic substrate. The rate of hydrolysis of the chromogenic or fluorogenic substrate by the relevant serine protease was measured both in the absence and presence of compounds of the present invention. Assays were conducted at room temperature or at 37° C. […] A decrease in the rate of fluorescence change in the presence of inhibitor is indicative of enzyme inhibition. Such methods are known to one skilled in the art. The results of this assay are expressed as the inhibitory constant, Ki.
Factor XIa determinations were made in 50 mM HEPES buffer at pH 7.4 containing 150 mM NaCl, 5 mM CaCl2, and 0.1% PEG 8000 (polyethylene glycol; J T Baker or Fisher Scientific). Determinations were made using purified human Factor XIa at a final concentration of 40 pM (Sekisui Diagnostics) and he synthetic substrate, Z-Gly-Pro-Arg-AFC, TFA salt (Sigma #C0980) at a concentration of 100 μM.
Activity assays were performed by diluting a stock solution of substrate at least tenfold to a final concentration ≦0.1 Km into a solution containing enzyme or enzyme equilibrated with inhibitor. Times required to achieve equilibration between enzyme and inhibitor were determined in control experiments. Initial velocities of product formation in the absence (Vo) or presence of inhibitor (Vi) were measured. Assuming competitive inhibition, and that unity is negligible compared Km/[S], [I]/e, and [I]/e (where [S], [I], and e respectively represent the total concentrations, of substrate, inhibitor and enzyme), the equilibrium constant (Ki) for dissociation of the inhibitor from the enzyme can be obtained from the dependence of Vo/Vi on [I] shown in the following equation.

T1 sequence (P03951 388-625 limits assumed): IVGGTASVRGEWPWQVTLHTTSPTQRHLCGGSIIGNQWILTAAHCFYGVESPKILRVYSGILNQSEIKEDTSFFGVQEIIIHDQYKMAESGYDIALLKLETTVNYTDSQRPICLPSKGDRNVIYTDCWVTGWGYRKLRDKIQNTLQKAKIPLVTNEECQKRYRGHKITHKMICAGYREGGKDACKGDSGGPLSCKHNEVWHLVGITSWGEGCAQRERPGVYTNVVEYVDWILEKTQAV
T1 sequence (P03951 19-387 partner limits assumed): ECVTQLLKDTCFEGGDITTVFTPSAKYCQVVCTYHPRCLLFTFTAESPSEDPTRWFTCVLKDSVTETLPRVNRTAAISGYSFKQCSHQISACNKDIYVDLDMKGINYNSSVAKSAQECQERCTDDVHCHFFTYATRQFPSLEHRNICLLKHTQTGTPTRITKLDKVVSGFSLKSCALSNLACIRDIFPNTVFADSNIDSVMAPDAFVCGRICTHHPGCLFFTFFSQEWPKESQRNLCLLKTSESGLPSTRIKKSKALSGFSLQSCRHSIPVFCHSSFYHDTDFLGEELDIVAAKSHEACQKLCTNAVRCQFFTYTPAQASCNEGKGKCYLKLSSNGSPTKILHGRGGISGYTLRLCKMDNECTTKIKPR

Ki [nM] | SMILES
3910 | COC(=O)Nc1ccc(-c2c[nH]c([C@@H]3[C@H](CO[Si](C)(C)C(C)(C)C)CCCN3C(=O)/C=C/c3cc(Cl)ccc3-n3cnnn3)n2)cc1 [Example 1-66, methyl (4-(2-((2S,3R)-3-(((tert-butyldimethylsilyl)oxy)methyl)-1-((E)-3-(5-chloro-2-(1H-tetrazol-1-yl)phenyl)acryloyl)piperidin-2-yl)-1H-imidazol-4-yl)phenyl)carbamate]
2820 | O=C(O)c1ccc(-c2c[nH]c(C3C(c4ccccc4)CCCN3C(=O)/C=C/c3cc(Cl)ccc3-n3cnnn3)n2)cc1 (stereo not drawn) [Example 1-45, (E)-4-(2-(1-(3-(5-chloro-2-(1H-tetrazol-1-yl)phenyl)acryloyl)-3-phenylpiperidin-2-yl)-1H-imidazol-4-yl)benzoic acid]
95.8 | COC(=O)Nc1ccc(-c2nc(C3C(c4ccccc4)CCCN3C(=O)/C=C/c3cc(Cl)ccc3-n3cnnn3)[nH]c2C)cc1 (stereo not drawn) [Example 1-52, (E)-methyl (4-(2-(1-(3-(5-chloro-2-(1H-tetrazol-1-yl)phenyl)acryloyl)-3-phenylpiperidin-2-yl)-5-methyl-1H-imidazol-4-yl)phenyl)carbamate]
103 | COC(=O)Nc1ccc(-c2c[nH]c(C3C(c4ccccc4)CCCN3C(=O)/C=C/c3cc(Cl)ccc3-n3cnnn3)n2)c(N)c1 (stereo not drawn) [Example 1-48, (E)-methyl (3-amino-4-(2-(1-(3-(5-chloro-2-(1H-tetrazol-1-yl)phenyl)acryloyl)-3-phenylpiperidin-2-yl)-1H-imidazol-4-yl)phenyl)carbamate]
72.8 | NCC1CCC(C(=O)N2CCCC(c3ccccc3)C2C(=O)Nc2ccc(C(=O)O)cc2)CC1 (stereo not drawn) [Example 1-50, 4-(1-(4-(aminomethyl)cyclohexanecarbonyl)-3-phenylpiperidine-2-carboxamido)benzoic acid]
> 10000 | COC(=O)c1cccc(-c2c[nH]c(C3C(c4ccccc4)CCCN3C(=O)/C=C/c3cc(Cl)ccc3-n3cnnn3)n2)c1 (racemic) [Example 1-54, (E)-methyl 3-(2-(1-(3-(5-chloro-2-(1H-tetrazol-1-yl)phenyl)acryloyl)-3-phenylpiperidin-2-yl)-1H-imidazol-4-yl)benzoate]
31.5 | COC(=O)Nc1ccc(-c2nc([C@@H]3[C@H](c4ccccc4)CCCN3C(=O)/C=C/c3cc(Cl)ccc3-n3cnnn3)[nH]c2Cl)cc1 [Example 1-55, Methyl (4-(5-chloro-2-((2S,3S)-1-((E)-3-(5-chloro-2-(1H-tetrazol-1-yl)phenyl)acryloyl)-3-phenylpiperidin-2-yl)-1H-imidazol-4-yl)phenyl)carbamate]
4010 | O=C(O)c1ccc(NC(=O)[C@H]2[C@@H](c3ccccc3)CCCN2C(=O)/C=C/c2cc(Cl)ccc2-n2cnnn2)cc1 [Example 1-56, 4-((2R,3R)-1-((E)-3-(5-chloro-2-(1H-tetrazol-1-yl)phenyl)acryloyl)-3-phenylpiperidine-2-carboxamido)benzoic acid]
> 10000 | CCCC(=O)Nc1cc(NC(=O)OC)ccc1-c1c[nH]c(C2C(c3ccccc3)CCCN2C(=O)/C=C/c2cc(Cl)ccc2-n2cnnn2)n1 (stereo not drawn) [Example 1-51, (E)-methyl (3-butyramido-4-(2-(1-(3-(5-chloro-2-(1H-tetrazol-1-yl)phenyl)acryloyl)-3-phenylpiperidin-2-yl)-1H-imidazol-4-yl)phenyl)carbamate]

The remaining lines, values behind:

SMILES | Ki [nM]
NCc1ccc(C(=O)N2CCCC(c3ccccc3)C2C(=O)Nc2ccc(C(=O)O)cc2)cc1C1CC1 (stereo not drawn) [Example 1-43, (4-(2-((4-carboxyphenyl)carbamoyl)-3-phenylpiperidine-1-carbonyl)-2-cyclopropylphenyl)methanaminium 2,2,2-trifluoroacetate] | 169
COC(=O)Nc1ccc(-c2c[nH]c(C3C(c4ccccc4)CCCN3C(=O)/C=C/c3cc(Cl)ccc3-n3cnnn3)n2)cc1 (stereo not drawn) [Example 1-38, (E)-methyl (4-(2-(1-(3-(5-chloro-2-(1H-tetrazol-1-yl)phenyl)acryloyl)-3-phenylpiperidin-2-yl)-1H-imidazol-4-yl)phenyl)carbamate] | 90
O=C(/C=C/c1cc(Cl)ccc1-n1cnnn1)N1CCCC(c2ccccc2)C1c1nc(-c2cccnc2)c[nH]1 [Example 1-11, (E)-3-(5-chloro-2-(1H-tetrazol-1-yl)phenyl)-1-(3-phenyl-2-(4-(pyridin-3-yl)-1H-imidazol-2-yl)piperidin-1-yl)prop-2-en-1-one (2R,3R)] | 8650
N#Cc1ccc(-c2c[nH]c(C3C(c4ccccc4)CCCN3C(=O)/C=C/c3cc(Cl)ccc3-n3cnnn3)n2)cc1 (stereo not drawn) [Example 1-22, (E)-4-(2-(1-(3-(5-chloro-2-(1H-tetrazol-1-yl)phenyl)acryloyl)-3-phenylpiperidin-2-yl)-1H-imidazol-4-yl)benzonitrile] | 3260
O=C(O)C1CCC(NC(=O)C2C(C3CCCCC3)CCCN2C(=O)/C=C/c2cc(Cl)ccc2-n2cnnn2)CC1 (stereo not drawn) [Example 1-6, 2,2,2-trifluoroacetate] | 5250
NC1CCc2cc(C(=O)N3CCCC(c4ccccc4)C3C(=O)Nc3ccc(C(=O)O)cc3)ccc21 (racemic) [Example 1-14, 4-(1-(1-amino-2,3-dihydro-1H-indene-5-carbonyl)-3-phenylpiperidine-2-carboxamido)benzoic acid] | 572
N#Cc1cccc(-c2c[nH]c(C3C(c4ccccc4)CCCN3C(=O)/C=C/c3cc(Cl)ccc3-n3cnnn3)n2)c1 (stereo not drawn) [Example 1-27, (E)-3-(2-(1-(3-(5-chloro-2-(1H-tetrazol-1-yl)phenyl)acryloyl)-3-phenylpiperidin-2-yl)-1H-imidazol-4-yl)benzonitrile] | > 10000
NCC1CCC(C(=O)N2CCCC(c3ccccc3)C2C(=O)Nc2ccc(C(=O)O)cc2)CC1 (stereo not drawn) [Example 1-39, (4-(2-((4-carboxyphenyl)carbamoyl)-3-phenylpiperidine-1-carbonyl)cyclohexyl)methanaminium 2,2,2-trifluoroacetate] | 45.6
O=C(/C=C/c1cc(Cl)ccc1-n1cnnn1)N1CCCC(c2ccccc2)C1c1nc(-c2cccc(C(F)(F)F)c2)c[nH]1 (stereo not drawn) [Example 1-31, (E)-3-(5-chloro-2-(1H-tetrazol-1-yl)phenyl)-1-(3-phenyl-2-(4-(3-(tifluoromethyl)phenyl)-1H-imidazol-2-yl)piperidin-1-yl)prop-2-en-1-one] | > 10000
